Results published in patent US20250340525A1, “F[…] COMPOUND” ([…], INC., priority 2022, published 2025).

Test system: mice
Test: Anesthetic activity: inhalation exposure of mice in a microcircuit, loss-of-righting-reflex (LORR)
Assay type: in vivo
Conditions: inhalation exposure to vaporized compound/air mixture circulated through microcircuit, dose not quantified
Method: A sample of the product mixture formed in Step 4 of the synthesis of Example 1, comprising both cis- and trans-isomers of TTD (the “TTD mixture”), was administered to mice via inhalation exposure in a microcircuit connected using unidirectional airflow valves to a CO2 absorbent chamber and a glass syringe. A small amount of liquid TTD mixture was transferred into the glass syringe where it volatilized. Mice were transferred to the small cylindrical chamber, and the glass syringe was connected to the microcircuit in series. […] Delivery of TTD mixture was discontinued, and the mice were allowed to recover.
Separately, the trans-isomer of TTD isolated in step 5 of Example 1 above was administered to mice via inhalation exposure in a microcircuit connected using unidirectional airflow valves to a CO2 absorbent chamber and a glass syringe. A small amount of the TTD was transferred into the glass syringe where it volatilized. Mice were transferred to the small cylindrical chamber, and the glass syringe was connected to the microcircuit in series. […] Delivery of the TTD was discontinued, and the mice were allowed to recover.

SMILES | loss-of-righting-reflex (LORR) / anesthetic activity
F[C@@H]1OC(F)(C(F)(F)F)O[C@H]1F (relative stereo) [trans-isomer of TTD, trans-2,4,5-trifluoro-2-trifluoromethyl-1,3-dioxolane] | indicated a loss-of-righting-reflex (LORR)
FC1OC(F)(C(F)(F)F)OC1F (centres unmarked) [TTD mixture, 2,4,5-trifluoro-2-(trifluoromethyl)-1,3-dioxolane] | indicated a loss-of-righting-reflex (LORR)
